Assay results published in article PMC11768739 (Viruses, 2025).
Where two headings read alike, the source gives them in different places.

Legend:
EV68-3C protease [1] = molecular target: T1, EV68-3C protease (enterovirus D68, UniProt A1E4A3); assay: FRET peptide cleavage assay (DABCYL/EDANS 10-mer, 2C/3A site); type: biochemical
EV68-3C protease [2] = molecular target: T1, EV68-3C protease; assay: as above; type: biochemical; conditions: covalent (irreversible); 60 min preincubation; 25 nM enzyme; 10 μM substrate; 50 mM HEPES pH 7.5, 100 mM NaCl, 3% DMSO; unreliable is not stated

T1 sequence (A1E4A3 entry or part of it): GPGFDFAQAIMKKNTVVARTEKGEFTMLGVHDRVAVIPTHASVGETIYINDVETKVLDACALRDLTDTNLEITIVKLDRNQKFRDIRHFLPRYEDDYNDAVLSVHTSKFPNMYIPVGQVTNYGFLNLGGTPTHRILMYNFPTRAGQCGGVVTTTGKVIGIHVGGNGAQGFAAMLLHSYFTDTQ

In the case of `COc1cccc2[nH]c(C(=O)N[C@@H](CC(C)C)C(=O)N[C@@H](C[C@@H]3CCNC3=O)C(=O)CO)cc12` [PF-00835231], the IC50 (EV68-3C protease [1]) is reported as 1.8 ± 0.2 µM.
`Cn1cnc(Cn2c(=O)[nH]/c(=N\c3cc4cn(C)nc4cc3Cl)n(Cc3cc(F)c(F)cc3F)c2=O)n1` [ensitrelvir] was tested, and the IC50 (EV68-3C protease [1]) was > 10 µM.
With `CC(C)(C)[C@H](NC(=O)C(F)(F)F)C(=O)N1C[C@H]2[C@@H]([C@H]1C(=O)N[C@H](C#N)C[C@@H]1CCNC1=O)C2(C)C` [nirmatrelvir] the IC50 (EV68-3C protease [1]) was > 10 µM.
For `CCOC(=O)/C=C/[C@H](C[C@@H]1CCNC1=O)NC(=O)[C@@H](CC(=O)[C@@H](NC(=O)c1cc(C)on1)C(C)C)Cc1ccc(F)cc1` [rupintrivir], the “IC50” value (EV68-3C protease [2]) was 0.0078 ± 0.0006 µM.
